System: male C57Bl/6 or male ob/ob mice
Experiment: Oral glucose tolerance test in mice
Format: in vivo
Conditions: dose of 30 mg kg^−1, oral
Procedure: The effects of compounds of the invention on oral glucose (Glc) tolerance were evaluated in male C57Bl/6 or male ob/ob mice. Food was withdrawn 5 h before administration of Glc and remained withdrawn throughout the study. Mice had free access to water during the study. A cut was made to the animals' tails, then blood (20 μL) was removed for measurement of basal Glc levels 45 min before administration of the Glc load. Then, the mice were weighed and dosed orally with test compound or vehicle (20% aqueous hydroxypropyl-β-cyclodextrin or 25% aqueous Gelucire 44/14) 30 min before the removal of an additional blood sample (20 μL) and treatment with the Glc load (2-5 g kg^−1 p.o.). Blood samples (20 μL) were then taken 25, 50, 80, 120, and 180 min after Glc administration. The 20 μL blood samples for measurement of Glc levels were taken from the cut tip of the tail into disposable micro-pipettes (Dade Diagnostics Inc., Puerto Rico) and the sample added to 480 μL of haemolysis reagent. Duplicate 20 μL aliquots of the diluted haemolysed blood were then added to 180 μL of Trinders glucose reagent (Sigma enzymatic (Trinder) colorimetric method) in a 96-well assay plate. After mixing, the samples were left at room temperature for 30 min before being read against Glc standards (Sigma glucose/urea nitrogen combined standard set).

For CC(C)OC(=O)N1CCC(O[C@H](C)c2nc(-c3cnc(N4C[C@H](c5cc(F)ccc5F)[C@@H](N)C4)nc3)no2)CC1.Cc1ccc(S(=O)(=O)O)cc1 [Example 18, 4-[(R)-1-(3-{2-[(3R,4S)-3-Amino-4-(2,5-difluorophenyl)pyrrolidin-1-yl]pyrimidin-5-yl}-[1,2,4]oxadiazol-5-yl)ethoxy]piperidine-1-carboxylic acid isopropyl ester p-toluenesulfonic acid salt], the “reduction in the Glc excursion” value was over 40%.

From patent publication US20120040953A1, “Compounds for the Treatment of Metabolic Disorders” (PROSIDION LIMITED, priority 2009, published 2012)
